PMC8132113 (Cancer letters, 2019)

Target: ABCB1 (Homo sapiens, UniProt P08183)
Assay: vanadate-sensitive ATPase assay
Assay type: biochemical

Sequence of ABCB1 (P08183 whole entry): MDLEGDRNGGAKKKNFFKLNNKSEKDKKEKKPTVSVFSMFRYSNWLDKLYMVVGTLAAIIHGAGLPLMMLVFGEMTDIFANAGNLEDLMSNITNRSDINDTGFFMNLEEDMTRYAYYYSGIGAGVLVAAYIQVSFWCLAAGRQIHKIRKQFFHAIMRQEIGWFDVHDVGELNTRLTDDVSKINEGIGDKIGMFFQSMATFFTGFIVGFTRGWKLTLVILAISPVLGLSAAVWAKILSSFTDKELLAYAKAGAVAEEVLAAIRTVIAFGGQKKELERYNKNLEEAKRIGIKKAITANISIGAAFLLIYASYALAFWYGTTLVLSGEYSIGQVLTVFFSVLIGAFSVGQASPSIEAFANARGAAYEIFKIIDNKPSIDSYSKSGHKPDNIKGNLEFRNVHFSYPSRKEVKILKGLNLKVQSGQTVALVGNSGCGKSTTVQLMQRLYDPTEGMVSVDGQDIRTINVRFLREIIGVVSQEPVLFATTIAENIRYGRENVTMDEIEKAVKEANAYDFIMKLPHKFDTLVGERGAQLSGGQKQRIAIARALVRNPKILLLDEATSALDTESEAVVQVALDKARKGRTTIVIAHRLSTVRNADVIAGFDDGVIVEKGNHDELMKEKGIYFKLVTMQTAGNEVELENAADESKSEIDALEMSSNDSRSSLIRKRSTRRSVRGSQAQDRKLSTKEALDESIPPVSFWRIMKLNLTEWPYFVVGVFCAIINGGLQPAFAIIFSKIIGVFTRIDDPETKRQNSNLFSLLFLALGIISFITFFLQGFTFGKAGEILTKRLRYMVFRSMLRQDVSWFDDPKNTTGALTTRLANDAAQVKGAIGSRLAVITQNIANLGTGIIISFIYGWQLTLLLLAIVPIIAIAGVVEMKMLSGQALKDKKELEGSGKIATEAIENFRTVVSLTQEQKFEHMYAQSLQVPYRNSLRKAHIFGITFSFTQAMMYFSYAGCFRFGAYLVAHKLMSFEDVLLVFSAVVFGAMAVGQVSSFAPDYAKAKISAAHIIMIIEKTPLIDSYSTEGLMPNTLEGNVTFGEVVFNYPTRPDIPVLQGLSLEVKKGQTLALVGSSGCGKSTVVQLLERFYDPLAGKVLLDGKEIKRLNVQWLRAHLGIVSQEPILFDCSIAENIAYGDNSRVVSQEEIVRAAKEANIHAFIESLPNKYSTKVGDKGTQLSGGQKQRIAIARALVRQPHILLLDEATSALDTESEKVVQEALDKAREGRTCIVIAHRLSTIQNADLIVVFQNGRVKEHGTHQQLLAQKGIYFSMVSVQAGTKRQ

SMILES: CO[C@@H]1[C@H](N(C)C(=O)c2ccccc2)C[C@H]2O[C@]1(C)n1c3ccccc3c3c4c(c5c6ccccc6n2c5c31)C(=O)NC4 [midostaurin]
- IC50: ~10 µM
